The record followed here is patent publication US5641485A, “Caledothricins used in the treatment mycotic diseases” (Hoffmann-La Roche Inc., priority 1994, dated 1997).

Converted amounts (≈) assume the structure as drawn. Read-outs that look alike come from different tables or passages of the source. Where only a bound is given, the exact number is not on record here.

Assay [1] has as its system Absidia corymbifera. The experiment in a line: In vitro antifungal activity (MIC) against Absidia corymbifera. The format is cell-based. To be noted: Lichtheimia corymbifera; strain IFO8084; pH 7.0, 27° C., 10,000 cfu/ml, 0.2% low melting point agarose.
Method: (§1) MIC is defined as the minimal concentration of test compound at which no visible growth is detected. Culture media employed for measuring MICs were yeast nitrogen base (Difco) supplemented with 1% of glucose, 0.2% of low melting point agarose and 0.25% of K2 HPO4 (pH 7.0). The low melting point agarose was omitted when antifungal activity against Candida albicans and Cryptococcus neoformans was measured. The culture media were inoculated with fungal cells at the final concentration of 10,000 cfu/ml. Plates were incubated for 1-12 days at 27° C.
The test system of assay [2] is Candida albicans. Briefly: microbe, parasite or virus in culture.
Method: as §1
In assay [3] the test system is Cryptococcus neoformans. Briefly: microbe, parasite or virus in culture.
Method: as §1
The subject of assay [4] is Aspergillus fumigatus. The experiment in a line: microbe, parasite or virus in culture. To be noted: pH 7.
Method: as §1
Assay [5] deals with Aspergillus fumigatus. To be noted: pH 7.0, 27° C., 10,000 cfu/ml, 0.2% low melting point agarose.
Method: as §1
Assay [6] deals with Trichosporon beigelii. The experiment in a line: In vitro antifungal activity (MIC) against Trichosporon beigelii. The note with it: ATCC28592, strain ATCC 28592, pH 7.0, 27° C., 10,000 cfu/ml, 0.2% low melting point agarose. It counts as cell-based.
Method: as §1
Assay [7] relates to Trichophyton mentagrophytes. Briefly: In vitro antifungal activity (MIC) against Trichophyton mentagrophytes. The format is cell-based. To be noted: strain CF1007, pH 7.0, 27° C., 10,000 cfu/ml, 0.2% low melting point agarose.
Method: as §1

Take `OC(Cn1cncn1)(Cn1cncn1)c1ccc(F)cc1F` [FCZ, fluconazole]: the MIC in assay [1] is more than 200 µg/mL; in assay [2] (ATCC48130, pH 7, strain ATCC48130, pH 7.0, 27° C., 10,000 cfu/ml), more than 200 µg/mL; in assay [2] (pH 7, strain 652, pH 7.0, 27° C., 10,000 cfu/ml), more than 200 µg/mL; in assay [2] (pH 7, strain AD, pH 7.0, 27° C., 10,000 cfu/ml) it was 200 µg/mL (≈ 653 µM); in assay [2] (pH 7, strain C42, pH 7.0, 27° C., 10,000 cfu/ml) it was more than 200 µg/mL; in assay [2] (pH 7, strain KB, pH 7.0, 27° C., 10,000 cfu/ml), more than 200 µg/mL. For the same compound, the MIC in assay [3] (pH 7, strain 422, pH 7.0, 27° C., 10,000 cfu/ml) is more than 200 µg/mL; in assay [3] (pH 7, strain MTU13001, pH 7.0, 27° C., 10,000 cfu/ml), 12.5 µg/mL (≈ 40.8 µM); in assay [4], more than 200 µg/mL; in assay [5] (strain 437) it was more than 200 µg/mL; in assay [5] (strain CF1004) it was more than 200 µg/mL; in assay [6], 0.39 µg/mL (≈ 1.27 µM). In assay [7], this compound registered an MIC of more than 200 µg/mL.
